Columns and labels:
Assay type in all cases: physicochemical
[1] = decolorization of methanol solution added to aqueous 1 N KOH
[2] = transmission densities of image-receiving components before and after bleaching with aqueous 1 N KOH; conditions: for Transmission density After Bleaching B / Transmission density After Bleaching G / Transmission density After Bleaching R: 1 N KOH
Description: (§1) Using appropriate solvents, samples of the dye compounds prepared in Examples 12, 13, 24, 26 and 39 were incorporated into the image-receiving layer 3 of image-receiving components comprising the structure set forth below by mixing a solution of each compound with a solution of the graft copolymer and coating this mixture on top of the timing layer to complete each of the image-receiving components.
A transparent 4 mil polyethylene terephthalate film base coated with, in succession:
1. as a polymeric acid layer, a mixture of about 9 parts of a partial butyl ester of polyethylene/maleic anhydride copolymer and 1 part of polyvinyl butyral coated at a coverage of about 2,500 mgs./ft.^2 ;
2. a timing layer containing a 14:1 ratio of a 60-30-4-6 tetrapolymer of butylacrylate, diacetone acrylamide, styrene and methacrylic acid and polyvinyl alcohol at a coverage of 500 mgs./ft.^2 ;
3. a graft copolymer of 4-vinylpyridine and vinylbenzyltrimethylammoniumchloride grafted on hydroxyethyl cellulose in a weight ratio of 2.2/1/2.2, respectively, coated at a coverage of 300 mgs./ft.^2 to provide an image-receiving layer and containing the selected dye compound at a coverage of 22 mgs./ft.^2.
Each of the image-receiving components containing the respective dye compounds were placed on a piece of gelatin coated Mylar, and the transmission densities for red (R), green (G) and blue (B) were recorded on a transmission densitometer. Then several drops of aqueous 1 N KOH were added to each gelatin sheet, and the image-receiving components were lightly pressed against the gelatin sheets to "bleach" the dye compounds. […]

[3] = bleaching rate (T 1/2) at pH=12 in buffer, visible spectrometer; conditions: for Wavelength (λmax-nm): pH=12 buffer; for T 1/2 (pH = 12): pH=12 buffer (aqueous), at λmax given
Description: The "bleaching" rates for the compounds of Examples 21, 23, 24, 39 and 41 were determined at pH=12 in terms of T 1/2. By T 1/2 is meant the time measured for one-half of the colored compound to decolorize. In making these determinations, a cell containing about 3 ml of pH=12 buffer (aqueous) was placed in a visible spectrometer. A sample of each compound was dissolved in methanol, and a small amount (less than 0.1 cc) of each solution was injected into the buffer. The optical densities were then recorded at a selected wavelength value to determine T 1/2.

[4] = decolorization of solution with aqueous 1N sodium hydroxide, then acidification; conditions: for color after decolorization with 1N NaOH and lowering to pH 1: methanol solution, aqueous hydrochloric acid to pH 1
Description: Also, samples of the compounds prepared in Examples 24, 26 and 39 above were dissolved in a small amount of methanol, and aqueous 1N sodium hydroxide was added to each solution to decolorize the compound.

[5] = absorption measured in ethanol
Description: (c) To a stirred slurry of the phthalol acyl derivative obtained in step b (7.4 g; 0.0155 M), sodium bicarbonate (6.51 g; 0.078 M) and water (200 ml) was added dropwise, a solution of 4.44 g (0.018 M) iodine in 175 ml methylene chloride. After a total of 20 minutes of stirring at room temperature, the aqueous layer was separated and neutralized by adding it to one liter of water containing 15 ml concentrated hydrochloric acid. The aqueous fraction was extracted with methylene, chloride, the organic layer was dried over sodium sulfate and the solvent was removed in vacuo. The dark orange residue was purified via medium pressure column chromatography (silica gel) methanol-methylene chloride; methanol content varied from 0.5-2%). The title compound was isolated as an orange glass. (λmax 424 nm, Epsilon 22,500 as measured in ethanol)

[6] = bleaching of TLC spot treated with 1 N NaOH
Description: (c) β-(methylsulfonyl)ethylchloroformate (196 mg) in 8 ml of toluene was added dropwise over 20 minutes to a refluxing solution of 317.3 mg of the compound prepared in step (b) in 15 ml toluene. The yellow mixture was allowed to stir under reflux for an additional hour after addition was complete. The reaction mixture was a deep yellow. […] The yellow spot representing the title compound when treated with 1 N NaOH produced a magenta color which bleached in approximately 5 seconds. The solvent was removed from the remaining reaction mixture under vacuum to give a yellow solid. Preparative TLC with 150 mg of solid in 4 ml tetrahydrofuran using 10% methanol/chloroform gave a yellow band which was separated and washed with acetone to yield approximately 5 mg of the title compound.

[7] = decolorization half-life of acetone solution in pH=12 buffer
Description: A sample of an acetone solution of the purified dye compound was added to fresh pH=12 buffer and the first half-life (T 1/2) and the second half-life (T 1/2) were measured giving the following results wherein OD refers to optical density. By T 1/2 is meant the time measured for one-half of said colored compound to decolorize.
The λmax of the pure title compound was 560 nm as measured in acetone--pH 12 buffer, and the T 1/2 values were measured at this wavelength.

[8] = bleaching of dye in image-receiving layer film with aqueous 1 N NaOH; conditions: dye in image-receiving layer 3
Description: as §1

[9] = addition of aqueous base (1 N NaOH) to methanol and acetone solutions
Description: The title compound gave yellow solutions in methanol and acetone.

[10] = 22 mgs./ft.^2, after 15 to 60 seconds
[11] = 22 mgs./ft.^2, coating stored for over 3 months
[12] = coating stored for over 3 months, bleaching time about 3 minutes
[13] = Experiment 1, pH=12 buffer, 560 nm
[14] = Experiment 2, pH=12 buffer, 560 nm

| Structure (SMILES) | Transmission density Before Bleaching B ([2]; 22 mgs./ft.^2) | Transmission density Before Bleaching G ([2]; 22 mgs./ft.^2) | Transmission density Before Bleaching R ([2]; 22 mgs./ft.^2) | Transmission density After Bleaching B [2, 10] | Transmission density After Bleaching G [2, 10] | Transmission density After Bleaching R [2, 10] | Wavelength (λmax-nm) [3] [nm] | T 1/2 (pH = 12) [3] [sec.] | further results |
| --- | --- | --- | --- | --- | --- | --- | --- | --- | --- |
| CC(=O)N(C)S(=O)(=O)c1ccccc1C(=C1C=C(C(O)(C(F)(F)F)C(F)(F)F)C(=O)c2ccccc21)c1cc2c3c(c1)CCCN3CCC2 [Example 9] | – | – | – | – | – | – | – | – | decolorization time [1]: approximately 5 seconds |
| COC1=CC(=C(c2ccc(N3CCOCC3)cc2)c2ccccc2S(=O)(=O)N(C)C(=O)OCCS(C)(=O)=O)C=C(OC)C1=O [Example 12] | .45 | .31 | .00 | .00 | .01 | .02 | – | – | – |
| COC1=CC(=C(c2cc3c4c(c2)CCCN4CCC3)c2ccccc2S(=O)(=O)N(C)C(=O)OCCS(C)(=O)=O)C=C(OC)C1=O [Example 13] | .09 | .32 | .21 | .00 | .01 | .01 | – | – | – |
| COC1=CC(=C(c2cc(OC)c(O)c(OC)c2)c2ccccc2S(=O)(=O)N(C)C(=O)OCCS(C)(=O)=O)C=C(OC)C1=O [Example 21] | – | – | – | – | – | – | 640 | 2 | – |
| COC1=CC(=C(c2cc(OC)c(O)c(OC)c2)c2ccccc2S(=O)(=O)N(C)C(C)=O)C=C(OC)C1=O [Example 23] | – | – | – | – | – | – | 640 | 158 | – |
| CC1=CC(=C(c2cc(C)c(O)c(C)c2)c2ccccc2S(=O)(=O)N(C)C(=O)OCCS(C)(=O)=O)C=C(C)C1=O [Example 24] | .40 | .00 | .00 | .00 | .00 | .01 | 590 | 2 | color after decolorization with 1N NaOH and lowering to pH 1 [4]: remained colorless even at pH 1 |
| CN(C(=O)OCCS(C)(=O)=O)S(=O)(=O)c1ccccc1C(=C1C=C(C(O)(C(F)(F)F)C(F)(F)F)C(=O)c2ccccc21)c1cc2c3c(c1)CCCN3CCC2 [Example 26] | – | – | – | – | – | – | – | – | color after decolorization with 1N NaOH and lowering to pH 1 [4]: remained colorless even at pH 1; decolorization (in words) [1]: decolorized substantially instantaneously; Transmission density Before Bleaching B [2, 11]: .05; Transmission density Before Bleaching G [2, 11]: .06; Transmission density Before Bleaching R [2, 11]: .19; Transmission density After Bleaching B [2, 12]: .02; Transmission density After Bleaching G [2, 12]: .00; Transmission density After Bleaching R [2, 12]: .02 |
| CC1=CC(=C(c2cc(C)c(O)c(C)c2)c2ccccc2COC(=O)COCC(=O)O)C=C(C)C1=O [Example 42] | – | – | – | – | – | – | – | – | λmax [5]: 424 nm; Epsilon ([5]; at λmax, in M-1 cm-1 (unit assumed)): 22,500 |
| CN(Cc1ccccc1C(=C1C=CC(=O)C=C1)c1ccc(O)cc1)C(=O)OCCS(C)(=O)=O [Example 44] | – | – | – | – | – | – | – | – | color after acidifying and again treating with aqueous 1N NaOH ([4]; after bleaching in 1N NaOH): remained colorless; time to complete bleaching ([4]; aqueous 1N NaOH): ≤ 5 s; time to bleach of magenta color [6]: approximately 5 seconds |
| CN(C(=O)OCCS(C)(=O)=O)C(=O)c1ccccc1C(=C1C=CC(=O)C=C1)c1ccc(O)cc1 [Example 45] | – | – | – | – | – | – | – | – | 1st T 1/2 [7, 13]: 10.0 s; 2nd T 1/2 [7, 13]: 8.5 s; Final OD [7, 13]: 0.02; OD at 1.5 sec. [7, 13]: 2.00; 1st T 1/2 [7, 14]: 9.5 s; 2nd T 1/2 [7, 14]: 8.5 s; Final OD [7, 14]: 0.01; Initial OD (extrapolated) [7, 14]: 1.15; OD at 3.0 sec. [7, 14]: 0.90; λmax ([7]; acetone--pH 12 buffer): 560 nm; bleaching of film with aqueous 1 N NaOH [8]: quickly bleached; bleaching on addition of aqueous base [9]: rapidly and irreversibly bleached to colorless |

Second part, led by results:

| Transmission density Before Bleaching B ([2]; 22 mgs./ft.^2) | Transmission density Before Bleaching G ([2]; 22 mgs./ft.^2) | Transmission density Before Bleaching R ([2]; 22 mgs./ft.^2) | Transmission density After Bleaching B [2, 10] | Transmission density After Bleaching G [2, 10] | Transmission density After Bleaching R [2, 10] | Wavelength (λmax-nm) [3] [nm] | T 1/2 (pH = 12) [3] [sec.] | Structure (SMILES) | further results |
| --- | --- | --- | --- | --- | --- | --- | --- | --- | --- |
| .59 | .03 | .01 | .01 | .00 | .00 | 640 | 44 | COCC(=O)OCc1ccccc1C(=C1C=C(OC)C(=O)C(OC)=C1)c1cc(OC)c(O)c(OC)c1 [Example 39] | color after decolorization with 1N NaOH and lowering to pH 1 [4]: remained colorless even at pH 1 |
| – | – | – | – | – | – | 640 | 18 | COC1=CC(=C(c2cc(OC)c(O)c(OC)c2)c2ccccc2COC(=O)COc2ccccc2)C=C(OC)C1=O [Example 41] | – |
